This passage reports Activity, Activity_index and IC50 results from ChEMBL document CHEMBL4673359, “Molecular docking and synthesis of caffeic acid analogous and its anti-inflammatory, analgesic and ulcerogenic studies” (Bioorg Med Chem Lett, 2021).

Data set [1] is described as follows: Acute toxicity in Wistar rat assessed as behavioral changes at 200 mg/kg, po administered for 7 days and observed for 14 days. The settings on record: in vivo, 336 h, time 14 day. Type of data set: organism-based.
Data set [2] can be described thus: Acute toxicity in Wistar rat assessed as survival at 200 mg/kg, po administered for 7 days and observed for 14 days. Format: organism-based. The settings on record: in vivo, 336 h, time 14 day.
A short description of data set [3]: Acute toxicity in Wistar rat assessed as behavioral changes at 100 mg/kg, po administered for 7 days and observed for 14 days. Format: organism-based. As to conditions: in vivo, 336 h, time 14 day.
The nature of data set [4]: Acute toxicity in Wistar rat assessed as survival at 100 mg/kg, po administered for 7 days and observed for 14 days. As to conditions: in vivo, 336 h, time 14 day. Type of data set: organism-based.
Data set [5] deals with Rattus norvegicus. Kind of data set: Anti-inflammatory activity in Wistar rat assessed as inhibition of carrageenan-induced paw edema at 20 mg/kg, po administered 1 hr prior to carrageenan stimulation and measured after 3 hrs by plethysmometric method relative to control. Type of data set: functional. The settings on record: time 4 hrs. The arrangement: scale not given: the % may be the effect or the level left. On the technique in general: The carrageenan paw model is a standard test of acute inflammation.

Data set [6] relates to Rattus norvegicus. The data set can be described thus: Anti-inflammatory activity in Wistar rat assessed as inhibition of carrageenan-induced paw edema at 20 mg/kg, po administered 1 hr prior to carrageenan stimulation and measured after 4 hrs by plethysmometric method relative to control. Type of data set: functional. Also on record: scale not given: the % may be the effect or the level left. The settings on record: time 5 hrs.

In another data set the test system is Mus musculus. Kind of data set: Analgesic activity in Swiss albino mouse assessed as inhibition of acetic acid-induced writhing at 20 mg/kg, po administered 30 mins prior to acetic acid treatment and measured for 20 mins. Type of data set: functional. Also on record: scale not given: the % may be the effect or the level left. As to conditions: time 50 min. Background: Writhing tests count abdominal constrictions after an irritant is injected.

Data set [7] is described as follows: Acute toxicity in Swiss albino mouse assessed as behavioral changes at 200 mg/kg, po administered for 7 days and observed for 14 days. As to conditions: in vivo, 336 h, time 14 day. Type of data set: organism-based.
Data set [8] can be described thus: Acute toxicity in Swiss albino mouse assessed as survival at 100 mg/kg, po administered for 7 days and observed for 14 days. Format: organism-based. The settings on record: in vivo, 336 h, time 14 day.
A short description of data set [9]: Acute toxicity in Swiss albino mouse assessed as behavioral changes at 100 mg/kg, po administered for 7 days and observed for 14 days. Format: organism-based. As to conditions: in vivo, 336 h, time 14 day.
Data set [10] can be described thus: Ulcerogenic activity in Wistar rat assessed as incidence of gastric ulceration by measuring severity index at 60 mg/kg, po measured after 17 hrs by microscopic analysis. The settings on record: in vivo. Type of data set: toxicity, organism-based.
In data set [11] the target is Prostaglandin G/H synthase 1 (Homo sapiens, UniProt P23219). The data set can be described thus: Inhibition of COX-1 (unknown origin) assessed as reduction in PGH2 formation using arachidonic acid as substrate preincubated for 5 mins followed by substrate addition and measured after 2 mins by enzyme immunoassay.
Sequence of Prostaglandin G/H synthase 1 (P23219 whole entry): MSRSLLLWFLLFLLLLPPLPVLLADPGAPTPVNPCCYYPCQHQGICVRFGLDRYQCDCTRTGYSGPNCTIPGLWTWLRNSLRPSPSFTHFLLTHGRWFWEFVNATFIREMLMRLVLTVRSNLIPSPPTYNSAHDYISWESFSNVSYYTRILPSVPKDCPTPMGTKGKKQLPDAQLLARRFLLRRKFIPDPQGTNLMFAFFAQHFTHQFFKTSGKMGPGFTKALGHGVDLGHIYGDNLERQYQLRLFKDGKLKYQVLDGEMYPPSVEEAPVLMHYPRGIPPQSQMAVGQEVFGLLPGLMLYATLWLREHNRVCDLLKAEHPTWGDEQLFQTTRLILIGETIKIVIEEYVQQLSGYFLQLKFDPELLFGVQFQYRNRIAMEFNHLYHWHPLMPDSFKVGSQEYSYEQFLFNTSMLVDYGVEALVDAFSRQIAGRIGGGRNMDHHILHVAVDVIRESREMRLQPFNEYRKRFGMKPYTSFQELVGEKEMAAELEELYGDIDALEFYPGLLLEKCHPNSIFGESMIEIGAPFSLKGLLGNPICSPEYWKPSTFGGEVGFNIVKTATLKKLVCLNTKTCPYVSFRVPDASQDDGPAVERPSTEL
Data set [12] deals with T1, Prostaglandin G/H synthase 2 (Homo sapiens, UniProt P35354).
T1 sequence (P35354 whole entry): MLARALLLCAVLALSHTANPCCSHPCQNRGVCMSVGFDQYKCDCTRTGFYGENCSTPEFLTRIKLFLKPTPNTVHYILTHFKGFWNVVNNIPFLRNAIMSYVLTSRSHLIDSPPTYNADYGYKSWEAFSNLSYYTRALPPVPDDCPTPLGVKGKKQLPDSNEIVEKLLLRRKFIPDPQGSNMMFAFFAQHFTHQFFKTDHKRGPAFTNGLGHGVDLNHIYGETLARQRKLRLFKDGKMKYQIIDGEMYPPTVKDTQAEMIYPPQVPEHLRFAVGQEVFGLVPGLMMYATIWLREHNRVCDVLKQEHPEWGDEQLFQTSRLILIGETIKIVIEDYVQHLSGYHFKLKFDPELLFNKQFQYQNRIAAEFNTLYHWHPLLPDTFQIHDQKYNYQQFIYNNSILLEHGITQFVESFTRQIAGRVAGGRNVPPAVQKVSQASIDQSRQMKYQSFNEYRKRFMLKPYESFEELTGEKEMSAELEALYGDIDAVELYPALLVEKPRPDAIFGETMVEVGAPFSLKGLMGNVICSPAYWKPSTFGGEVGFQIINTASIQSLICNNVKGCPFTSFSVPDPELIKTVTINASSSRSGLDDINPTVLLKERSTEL
Kind of data set: Inhibition of COX-2 (unknown origin) assessed as reduction in PGH2 formation using arachidonic acid as substrate preincubated for 5 mins followed by substrate addition and measured after 2 mins by enzyme immunoassay.

Data set [13] is described as follows: Acute toxicity in Swiss albino mouse assessed as survival at 200 mg/kg, po administered for 7 days and observed for 14 days. Type of data set: organism-based. The settings on record: in vivo, 336 h, time 14 day.

The structures appear in SMILES notation.

The IC50 is the midpoint of a concentration-inhibition curve. Regarding `O=C(/C=C/c1ccc(O)c(O)c1)NNC(=O)COc1cccnc1`, the Activity entry in [1] was “Non-Toxic”; in data set [2], “Non-Toxic”; in data set [3], “Non-Toxic”; in [4], “Non-Toxic”; in the data set on Rattus norvegicus [5] it was 63.96%; with Rattus norvegicus [6], 60.82%. The Activity in the data set on Mus musculus was 53.41%; in [7], “Non-Toxic”; in data set [8], “Non-Toxic”; in data set [9], “Non-Toxic”; in [13] it was “Non-Toxic”. In data set [10], the Activity_index came out at 0.4. Besides, the results for the IC50 in data set [11] and in [12] were 182 µM and 5 µM, respectively.

For `O=C(/C=C/c1ccc(O)c(O)c1)NNC(=O)COc1ccc2ccccc2c1`, the Activity result in data set [1] is recorded as “Non-Toxic”; in data set [2], “Non-Toxic”; in [3] it was “Non-Toxic”; in data set [4] it was “Non-Toxic”; with Rattus norvegicus [5], 51.61%; with Rattus norvegicus [6] it was 48.7%. Further, the Activity in the data set on Mus musculus is reported as 65.1%; in data set [7] it was “Non-Toxic”; in data set [8], “Non-Toxic”; in data set [9] it was “Non-Toxic”; in data set [13] it was “Non-Toxic”. In addition, the Activity_index in data set [10] is on record as 0.57.

Regarding `O=C(/C=C/c1ccc(O)c(O)c1)NNC(=O)COc1cccc2cccnc12`, the Activity entry is “Non-Toxic” in data set [1]; “Non-Toxic” in [2]; “Non-Toxic” in data set [3]; “Non-Toxic” in [4]; 66.61% in the data set on Rattus norvegicus [5]; 61.47% with Rattus norvegicus [6]. Further, the Activity is 57.3% in the data set on Mus musculus; “Non-Toxic” in data set [7]; “Non-Toxic” in data set [8]; “Non-Toxic” in data set [9]; “Non-Toxic” in [13]. In addition, the Activity_index in data set [10] came out at 0.53. For the same molecule, the results for the concentration for half-maximal inhibition (IC50) in [11] and in data set [12] were 126 µM and 4.9 µM, respectively.

Take `Cc1ccc(OCC(=O)NNC(=O)/C=C/c2ccc(O)c(O)c2)cc1`: the Activity entry in data set [1] is on record as “Non-Toxic”; in [2], “Non-Toxic”; in data set [3], “Non-Toxic”; in data set [4], “Non-Toxic”; with Rattus norvegicus [5], 58.71%; in the data set with Rattus norvegicus [6], 55.53%. Also, the Activity is recorded as 64.68% in the data set with Mus musculus; “Non-Toxic” in data set [7]; “Non-Toxic” in data set [8]; “Non-Toxic” in data set [9]; “Non-Toxic” in data set [13]. Besides, in data set [10], the Activity_index was found to be 0.38.

For `O=C(/C=C/c1ccc(O)c(O)c1)NNC(=O)COc1ccc(Cl)cc1`, the Activity entry is “Non-Toxic” in data set [1]; “Non-Toxic” in data set [2]; “Non-Toxic” in data set [3]; “Non-Toxic” in data set [4]; 75.17% with Rattus norvegicus [5]; 72.29% in the data set on Rattus norvegicus [6]. In addition, the Activity is given as 67.85% in the data set with Mus musculus; “Non-Toxic” in data set [7]; “Non-Toxic” in [8]; “Non-Toxic” in [9]; “Non-Toxic” in [13]. The Activity_index in [10] is listed as 0.76. For the same molecule, the IC50 was found to be 214 µM in data set [11] and 3.17 µM in data set [12].

On to `Cc1ccc(OCC(=O)NNC(=O)/C=C/c2ccc(O)c(O)c2)c(C)c1`, for which the Activity result is on record as “Non-Toxic” in data set [1]; “Non-Toxic” in data set [2]; “Non-Toxic” in data set [3]; “Non-Toxic” in data set [4]; 67.18% in the data set on Rattus norvegicus [5]; 64.45% in the data set on Rattus norvegicus [6]. For the same molecule, the Activity in the data set on Mus musculus is listed as 45.21%; in data set [7], “Non-Toxic”; in data set [8], “Non-Toxic”; in data set [9], “Non-Toxic”; in [13] it was “Non-Toxic”. For the same molecule, the Activity_index in [10] is given as 0.26. Besides, the IC50 in data set [11] is 107 µM; in [12], 2.1 µM.

On to `O=C(/C=C/c1ccc(O)c(O)c1)NNC(=O)COc1ccc(Br)cc1`, for which the Activity result is reported as “Non-Toxic” in data set [1]; “Non-Toxic” in data set [2]; “Non-Toxic” in data set [3]; “Non-Toxic” in data set [4]; 74.9% with Rattus norvegicus [5]; 71.15% in the data set with Rattus norvegicus [6]. The Activity in the data set on Mus musculus was 71.35%; in data set [7] it was “Non-Toxic”; in [8], “Non-Toxic”; in [9] it was “Non-Toxic”; in data set [13] it was “Non-Toxic”. Besides, the Activity_index in data set [10] came to 0.78. Further, the IC50 in data set [11] stood at 233 µM; in [12], 3.4 µM.

On to `O=C(/C=C/c1ccc(O)c(O)c1)NNC(=O)COc1cccc2ccccc12`, for which the Activity entry in [1] is on record as “Non-Toxic”; in data set [2] it was “Non-Toxic”; in [3], “Non-Toxic”; in [4] it was “Non-Toxic”; in the data set with Rattus norvegicus [5], 49.96%; with Rattus norvegicus [6] it was 44.45%. Moreover, the Activity is 50.7% with Mus musculus; “Non-Toxic” in data set [7]; “Non-Toxic” in [8]; “Non-Toxic” in data set [9]; “Non-Toxic” in data set [13]. Besides, the Activity_index in data set [10] is on record as 0.46.

For the molecule `Cc1ccc2cccc(OCC(=O)NNC(=O)/C=C/c3ccc(O)c(O)c3)c2n1`, the Activity entry in data set [1] was “Non-Toxic”; in data set [2], “Non-Toxic”; in data set [3], “Non-Toxic”; in [4], “Non-Toxic”; with Rattus norvegicus [5], 57.19%; with Rattus norvegicus [6] it was 53.15%. Besides, the Activity is recorded as 49.02% in the data set on Mus musculus; “Non-Toxic” in [7]; “Non-Toxic” in data set [8]; “Non-Toxic” in data set [9]; “Non-Toxic” in data set [13]. In addition, the Activity_index in data set [10] is given as 0.57.

Turning to `Cc1ccccc1OCC(=O)NNC(=O)/C=C/c1ccc(O)c(O)c1`, the Activity result in data set [1] is listed as “Non-Toxic”; in data set [2], “Non-Toxic”; in data set [3] it was “Non-Toxic”; in data set [4], “Non-Toxic”; in the data set on Rattus norvegicus [5] it was 54.96%; in the data set with Rattus norvegicus [6] it was 49.83%. Also, the Activity was 49.18% in the data set on Mus musculus; “Non-Toxic” in [7]; “Non-Toxic” in [8]; “Non-Toxic” in [9]; “Non-Toxic” in data set [13]. For the same molecule, in [10], the Activity_index was found to be 0.58.

For `Cc1ccc(-c2cc(C(F)(F)F)nn2-c2ccc(S(N)(=O)=O)cc2)cc1` [CELECOXIB], the Activity with Rattus norvegicus [5] was determined as 78%; in the data set on Rattus norvegicus [6], 74.56%; in the data set on Mus musculus it was 73.53%.
